Laboratory results from ChEMBL document CHEMBL1144445, “Design, synthesis and antiviral activity of novel 4,5-disubstituted 7-(beta-D-ribofuranosyl)pyrrolo[2,3-d][1,2,3]triazines and the novel 3-amino-5-methyl-1-(beta-D-ribofuranosyl)- and 3-amino-5-methyl-1-(2-deoxy-beta-D-ribofuranosyl)-1,5-dihydro-1,4,5,6,7,8-hexaazaacenaphthylene as analogues of …” (J Med Chem, 2005).
pIC50: −log10 of the molar value.

Tests used:
Human betaherpesvirus 5 [1] = test: Inhibitory concentration against human cytomegalovirus using plaque assay; format: functional, organism-based
KB = test: Inhibitory concentration was determined for KB cell growth; format: functional, cell-based; details: Homo sapiens
HFF = test: Visual cytotoxicity was determined in uninfected HFF cells using plaque assay; format: functional, cell-based; details: Homo sapiens
Human alphaherpesvirus 1 = test: Inhibitory concentration against human herpes simplex virus type 1 using ELISA test; format: functional, organism-based
Human betaherpesvirus 5 [2] = test: Inhibitory concentration against human cytomegalovirus using yield-reduction assay; format: functional
[3] = tested on: Human immunodeficiency virus 1; test: Inhibitory concentration against human immunodeficiency virus type 1; format: functional, organism-based

Row | Structure (SMILES) | pIC50 (Human betaherpesvirus 5 [1]) | pIC50 (KB) | pIC50 (HFF) | pIC50 (Human alphaherpesvirus 1) | IC90 (Human betaherpesvirus 5 [2]) [µM] | pIC50 [3]
1 | NC(=O)c1cn([C@@H]2O[C@H](COC(=O)c3ccccc3)[C@@H](OC(=O)c3ccccc3)[C@H]2OC(=O)c2ccccc2)c2nnnc(O)c12 | < 5.00 | < 5.00 | < 5.00 | < 5.00 | – | –
2 | N#Cc1cn([C@@H]2O[C@H](COC(=O)c3ccccc3)[C@@H](OC(=O)c3ccccc3)[C@H]2OC(=O)c2ccccc2)c2nnnc(-n3cncn3)c12 | < 5.00 | < 5.00 | < 5.00 | < 5.00 | – | –
3 | N#C/N=C(\N)c1cn([C@@H]2O[C@H](CO)[C@@H](O)[C@H]2O)c2nnnc(N)c12 | < 4.00 | 5.30 | < 4.00 | < 4.00 | – | –
4 | NC(=O)c1cn([C@@H]2O[C@H](COC(=O)c3ccccc3)[C@@H](OC(=O)c3ccccc3)[C@H]2OC(=O)c2ccccc2)c(N)c1C(N)=O | < 5.00 | < 5.00 | < 5.00 | < 5.00 | – | –
5 | N/C(=N\O)c1cn([C@@H]2O[C@H](CO)[C@@H](O)[C@H]2O)c2nnnc(N)c12 | > 5.70 | 5.82 | 5.18 | 6.05 | – | –
6 | CCOC(=O)c1cn([C@@H]2O[C@H](CO)[C@@H](O)[C@H]2O)c2nnnc(N)c12 | < 4.00 | 4.10 | < 4.00 | < 4.00 | – | –
7 | N=C(NN)c1cn([C@@H]2O[C@H](CO)[C@@H](O)[C@H]2O)c2nnnc(N)c12 | 4.49 | 5.52 | 4.49 | 4.10 | 1 | –
8 | COC(=N)c1cn([C@@H]2O[C@H](CO)[C@@H](O)[C@H]2O)c2nnnc(N)c12 | 4.49 | 4.70 | 4.68 | < 4.00 | – | –
9 | CN(N)c1nnnc2c1c(C#N)cn2[C@@H]1O[C@H](COC(=O)c2ccccc2)[C@@H](OC(=O)c2ccccc2)[C@H]1OC(=O)c1ccccc1 | < 5.00 | < 5.00 | < 5.00 | < 5.00 | – | –
10 | Cc1ccc(C(=O)OC[C@H]2O[C@@H](n3cc(C(N)=O)c(C(N)=O)c3N)C[C@@H]2OC(=O)c2ccc(C)cc2)cc1 | 4.92 | 4.00 | 4.49 | < 4.00 | – | –
11 | NC(=S)c1cn([C@@H]2O[C@H](CO)[C@@H](O)[C@H]2O)c2nnnc(N)c12 | 5.07 | 5.70 | 4.49 | 4.40 | – | –
12 | NC(=O)c1cn([C@@H]2O[C@H](CO)[C@@H](O)[C@H]2O)c2nnnc(N)c12 | 6.52 | 7.10 | 6.52 | 5.60 | 0.4 | –
13 | CN1N=C(N)c2cn([C@@H]3O[C@H](CO)[C@@H](O)[C@H]3O)c3nnnc1c23 | 4.85 | 5.60 | 5.00 | < 4.00 | – | 6.22
14 | Cc1ccc(C(=O)OC[C@H]2O[C@@H](n3cc(C(N)=O)c(C(N)=O)c3[N+](=O)[O-])C[C@@H]2OC(=O)c2ccc(C)cc2)cc1 | 4.49 | – | 4.49 | < 4.00 | – | –
